Columns and labels:
SYK = SYK (Homo sapiens, UniProt P43405); assay: In vitro kinase inhibition, Ambit Biosciences panel; assay type: binding; design: purchased Ambit Biosciences; settings: lower numbers indicate stronger activities
Procedure: (§1) Up to 518 different kinases have been identified in humans. They act on small molecules such as lipids, carbohydrates, amino acids, and nucleotides. To determine the scope of inhibitory effects of a representative compound of Formula (I) on known kinases, Compound 6 was tested against 104 commercially available kinases (Ambit Biosciences™) in vitro. 104 kinases included ABL1(E255K)-phosphorylated, ABL1(T315I)-phosphorylated, ABL1-phosphorylated, ACVR1B, ADCK3, AKT1, AKT2, ALK, AURKA, AURKB, AXL, BMPR2, BRAF, BRAF(V600E), BTK, CDK11, CDK2, CDK3, CDK7, CDK9, CHEK1, CSF1R, CSNK1D, CSNK1G2, DCAMKL1, DYRK1B, EGFR, EGFR(L858R), EPHA2, ERBB2, ERBB4, ERK1, FAK, FGFR2, FGFR3, FLT1, FLT3, FLT4, GSK3B, IGF1R, IKK-α, IKK-β, INSR, JAK2(JH1domain-catalytic), JAK3(JH1domain-catalytic), JNK1, JNK2, JNK3, KIT, KIT(D816V), KIT(V559D,T670I), LKB1, LRRK2, LRRK2(G2019S), MAP3K4, MAPKAPK2, MARK3, MEK1, MEK2, MET, MKNK1, MKNK2, MLK1, MTOR, p38-alpha, p38-beta, PAK1, PAK2, PAK4, PCTK1, PDGFRA, PDGFRB, PDPK1, PIK3C2B, PIK3CA, PIK3CG, PIM1, PIM2, PIM3, PKAC-alpha, PLK1, PLK3, PLK4, PRKCE, PYK2, RAFT, RET, RIOK2, ROCK2, RSK2, SNARK, SRC, SRPK3, SYK, TAK1, TGFBR1, TIE2, TRKA, TSSK1B, TYK2(JH1domain-catalytic), ULK2, VEGFR2, YANK3 and ZAP70.
(§2) Inhibition activity of Compound 6 was reported as percent control where lower numbers indicate stronger activities. […]

PYK2 = PYK2 (Homo sapiens, UniProt Q14289); assay: as above; assay type: binding; design: purchased Ambit Biosciences; settings: lower numbers indicate stronger activities
Procedure: as §1, §2

NCI-H226 = assay: cells; assay type: cell-based; settings: NCI-H226 (NSCLC)
HL-60(TB) = assay: cells; assay type: cell-based; settings: HL-60(TB) (Leukemia)
HCT-15 = assay: cells; assay type: cell-based; settings: HCT-15 (Colon Cancer)
SF-295 = assay: cells; assay type: cell-based; settings: SF-295 (CNS Cancer)
BMPR2 = target: T1, BMPR2 (Homo sapiens, UniProt Q13873); assay: In vitro kinase inhibition, Ambit Biosciences panel; assay type: binding; settings: lower numbers indicate stronger activities
T1 construct: purchased Ambit Biosciences
Procedure: as §1
(§3) Inhibition activity of Compound 6 was reported as percent control where lower numbers indicate stronger activities. […] Conventionally, the percent control of less than 35 is deemed to be significant inhibition of kinase activity as the numeric value 35 is frequently used as a threshold.

JNK3 = target: T2, JNK3 (Homo sapiens, UniProt P53779); assay: as above; assay type: binding; settings: lower numbers indicate stronger activities
T2 construct: purchased Ambit Biosciences
Procedure: as §1, §3

TAK1 = target: T3, TAK1 (Homo sapiens, UniProt O43318); assay: as above; assay type: binding; settings: lower numbers indicate stronger activities
T3 construct: purchased Ambit Biosciences
Procedure: as §1, §3

FAK = target: T4, FAK (Homo sapiens, UniProt Q05397); assay: as above; assay type: binding; settings: lower numbers indicate stronger activities
T4 construct: purchased Ambit Biosciences
Procedure: as §1, §3

LKB1 = target: T5, LKB1 (Homo sapiens, UniProt Q15831); assay: as above; assay type: binding; settings: lower numbers indicate stronger activities
T5 construct: purchased Ambit Biosciences
Procedure: as §1, §3

RET = target: T6, RET (Homo sapiens, UniProt P07949); assay: as above; assay type: binding; settings: lower numbers indicate stronger activities
T6 construct: purchased Ambit Biosciences
Procedure: as §1, §3

SNARK = target: T7, SNARK (Homo sapiens, UniProt Q9H093); assay: as above; assay type: binding; settings: lower numbers indicate stronger activities
T7 construct: purchased Ambit Biosciences
Procedure: as §1, §3

MLK1 = target: T8, MLK1 (Homo sapiens, UniProt P80192); assay: as above; assay type: binding; settings: lower numbers indicate stronger activities
T8 construct: purchased Ambit Biosciences
Procedure: as §1, §3

PLK4 = target: T9, PLK4 (Homo sapiens, UniProt O00444); assay: as above; assay type: binding; settings: lower numbers indicate stronger activities
T9 construct: purchased Ambit Biosciences
Procedure: as §1, §3

KIT(D816V) = target: T10, KIT(D816V) (Homo sapiens, UniProt P10721, D816V); assay: as above; assay type: binding; settings: lower numbers indicate stronger activities
T10 construct: purchased Ambit Biosciences
Procedure: as §1, §3

JNK2 = target: T11, JNK2 (Homo sapiens, UniProt P45984); assay: as above; assay type: binding; settings: lower numbers indicate stronger activities
T11 construct: purchased Ambit Biosciences
Procedure: as §1, §3

CSF1R = target: T12, CSF1R (Homo sapiens, UniProt P07333); assay: as above; assay type: binding; settings: lower numbers indicate stronger activities
T12 construct: purchased Ambit Biosciences
Procedure: as §1, §3

ALK = target: T13, ALK (Homo sapiens, UniProt Q9UM73); assay: as above; assay type: binding; settings: lower numbers indicate stronger activities
T13 construct: purchased Ambit Biosciences
Procedure: as §1, §3

PAK4 = target: T14, PAK4 (Homo sapiens, UniProt O96013); assay: as above; assay type: binding; settings: lower numbers indicate stronger activities
T14 construct: purchased Ambit Biosciences
Procedure: as §1, §3

JNK1 = target: T15, JNK1 (Homo sapiens, UniProt P45983); assay: as above; assay type: binding; settings: lower numbers indicate stronger activities
T15 construct: purchased Ambit Biosciences
Procedure: as §1, §3

SRPK3 = target: T16, SRPK3 (Homo sapiens, UniProt Q9UPE1); assay: as above; assay type: binding; settings: lower numbers indicate stronger activities
T16 construct: purchased Ambit Biosciences
Procedure: as §1, §3

PDGFRB = target: T17, PDGFRB (Homo sapiens, UniProt P09619); assay: as above; assay type: binding; settings: lower numbers indicate stronger activities
T17 construct: purchased Ambit Biosciences
Procedure: as §1, §3

KIT = target: T18, KIT (Homo sapiens, UniProt P10721); assay: as above; assay type: binding; settings: lower numbers indicate stronger activities
T18 construct: purchased Ambit Biosciences
Procedure: as §1, §3

U251 = assay: cells; assay type: cell-based; settings: U251 (CNS Cancer)
RPMI-8226 = assay: cells; assay type: cell-based; settings: RPMI-8226 (Leukemia)
[1] = Homo sapiens, read-out: LC50 (the source's name)

T10 sequence (P10721 26-976 D816V): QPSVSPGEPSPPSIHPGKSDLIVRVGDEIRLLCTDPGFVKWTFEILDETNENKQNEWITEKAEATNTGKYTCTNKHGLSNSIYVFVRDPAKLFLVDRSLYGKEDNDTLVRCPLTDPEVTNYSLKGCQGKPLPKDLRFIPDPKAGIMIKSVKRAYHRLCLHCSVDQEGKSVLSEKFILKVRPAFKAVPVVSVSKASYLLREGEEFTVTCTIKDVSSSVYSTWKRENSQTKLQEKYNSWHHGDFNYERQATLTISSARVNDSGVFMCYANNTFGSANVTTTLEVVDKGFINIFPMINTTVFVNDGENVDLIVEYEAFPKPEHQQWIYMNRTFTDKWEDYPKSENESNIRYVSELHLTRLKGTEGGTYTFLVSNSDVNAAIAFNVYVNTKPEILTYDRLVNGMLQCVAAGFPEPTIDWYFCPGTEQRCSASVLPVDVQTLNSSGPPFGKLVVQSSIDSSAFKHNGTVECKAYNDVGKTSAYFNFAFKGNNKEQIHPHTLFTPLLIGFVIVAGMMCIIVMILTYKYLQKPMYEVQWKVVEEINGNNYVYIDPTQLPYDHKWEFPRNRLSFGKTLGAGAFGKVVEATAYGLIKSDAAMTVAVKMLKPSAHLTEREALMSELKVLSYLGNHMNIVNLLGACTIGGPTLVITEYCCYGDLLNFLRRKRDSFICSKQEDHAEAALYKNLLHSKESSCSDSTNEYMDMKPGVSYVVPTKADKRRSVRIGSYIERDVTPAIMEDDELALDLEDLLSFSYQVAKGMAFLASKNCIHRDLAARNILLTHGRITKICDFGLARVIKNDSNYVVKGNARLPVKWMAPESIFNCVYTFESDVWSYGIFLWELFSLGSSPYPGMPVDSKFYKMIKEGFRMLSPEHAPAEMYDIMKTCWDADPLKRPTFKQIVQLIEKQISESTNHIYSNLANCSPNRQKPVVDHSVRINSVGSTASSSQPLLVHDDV
T2 sequence (P53779 whole entry): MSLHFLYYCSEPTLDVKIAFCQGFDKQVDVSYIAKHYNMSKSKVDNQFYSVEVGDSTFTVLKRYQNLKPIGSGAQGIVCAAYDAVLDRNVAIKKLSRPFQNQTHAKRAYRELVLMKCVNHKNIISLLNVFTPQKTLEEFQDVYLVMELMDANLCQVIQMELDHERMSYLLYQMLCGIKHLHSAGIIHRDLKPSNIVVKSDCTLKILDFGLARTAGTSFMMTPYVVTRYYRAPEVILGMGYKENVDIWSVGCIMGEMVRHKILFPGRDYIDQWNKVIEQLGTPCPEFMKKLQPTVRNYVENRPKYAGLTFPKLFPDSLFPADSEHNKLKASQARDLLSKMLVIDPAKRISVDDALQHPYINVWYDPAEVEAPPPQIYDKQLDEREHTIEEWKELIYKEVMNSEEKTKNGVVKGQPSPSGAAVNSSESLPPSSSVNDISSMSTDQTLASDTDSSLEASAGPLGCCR
T7 sequence (Q9H093 whole entry): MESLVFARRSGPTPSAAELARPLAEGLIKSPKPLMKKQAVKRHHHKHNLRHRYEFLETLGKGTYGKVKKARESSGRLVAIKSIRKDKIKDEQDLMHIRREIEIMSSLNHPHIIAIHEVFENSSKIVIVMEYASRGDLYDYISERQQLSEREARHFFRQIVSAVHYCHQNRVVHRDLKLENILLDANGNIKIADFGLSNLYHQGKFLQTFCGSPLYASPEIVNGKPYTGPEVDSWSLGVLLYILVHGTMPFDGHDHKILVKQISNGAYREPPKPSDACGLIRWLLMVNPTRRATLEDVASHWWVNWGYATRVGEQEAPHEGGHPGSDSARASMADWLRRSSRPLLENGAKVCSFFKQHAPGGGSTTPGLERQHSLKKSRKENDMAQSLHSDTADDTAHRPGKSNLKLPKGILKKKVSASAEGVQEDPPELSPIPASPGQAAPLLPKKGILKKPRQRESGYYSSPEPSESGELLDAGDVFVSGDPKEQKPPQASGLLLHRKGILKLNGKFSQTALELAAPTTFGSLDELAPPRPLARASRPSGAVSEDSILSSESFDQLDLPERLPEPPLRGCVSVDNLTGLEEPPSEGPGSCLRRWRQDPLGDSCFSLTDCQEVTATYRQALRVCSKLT
T8 sequence (P80192 whole entry): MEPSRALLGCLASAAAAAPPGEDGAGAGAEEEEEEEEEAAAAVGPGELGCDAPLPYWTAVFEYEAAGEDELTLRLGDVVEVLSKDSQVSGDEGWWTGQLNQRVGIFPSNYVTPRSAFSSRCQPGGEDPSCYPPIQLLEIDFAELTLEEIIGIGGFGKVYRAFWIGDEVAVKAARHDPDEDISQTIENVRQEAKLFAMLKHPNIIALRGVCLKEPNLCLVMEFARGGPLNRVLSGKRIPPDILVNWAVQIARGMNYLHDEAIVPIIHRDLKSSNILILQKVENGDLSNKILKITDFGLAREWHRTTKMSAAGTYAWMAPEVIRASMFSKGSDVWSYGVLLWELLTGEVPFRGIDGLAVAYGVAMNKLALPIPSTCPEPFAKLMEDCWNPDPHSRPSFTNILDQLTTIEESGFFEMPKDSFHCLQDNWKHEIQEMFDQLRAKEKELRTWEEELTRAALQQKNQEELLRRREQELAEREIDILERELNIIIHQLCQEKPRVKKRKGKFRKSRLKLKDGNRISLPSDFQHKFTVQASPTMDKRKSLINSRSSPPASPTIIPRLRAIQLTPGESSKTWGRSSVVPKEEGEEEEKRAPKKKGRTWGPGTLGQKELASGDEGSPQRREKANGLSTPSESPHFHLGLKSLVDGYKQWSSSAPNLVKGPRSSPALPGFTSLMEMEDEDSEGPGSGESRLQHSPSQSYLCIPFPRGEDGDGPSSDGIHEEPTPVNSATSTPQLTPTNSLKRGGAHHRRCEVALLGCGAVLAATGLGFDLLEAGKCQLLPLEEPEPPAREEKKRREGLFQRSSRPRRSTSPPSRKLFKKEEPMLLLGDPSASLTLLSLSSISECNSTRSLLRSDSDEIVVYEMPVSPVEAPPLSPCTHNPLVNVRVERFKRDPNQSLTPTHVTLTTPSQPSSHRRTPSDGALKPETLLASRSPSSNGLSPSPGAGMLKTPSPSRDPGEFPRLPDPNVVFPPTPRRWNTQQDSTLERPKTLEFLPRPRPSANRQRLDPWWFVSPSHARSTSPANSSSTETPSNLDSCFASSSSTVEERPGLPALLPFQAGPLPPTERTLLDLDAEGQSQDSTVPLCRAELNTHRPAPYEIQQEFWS
T13 sequence (Q9UM73 19-1620): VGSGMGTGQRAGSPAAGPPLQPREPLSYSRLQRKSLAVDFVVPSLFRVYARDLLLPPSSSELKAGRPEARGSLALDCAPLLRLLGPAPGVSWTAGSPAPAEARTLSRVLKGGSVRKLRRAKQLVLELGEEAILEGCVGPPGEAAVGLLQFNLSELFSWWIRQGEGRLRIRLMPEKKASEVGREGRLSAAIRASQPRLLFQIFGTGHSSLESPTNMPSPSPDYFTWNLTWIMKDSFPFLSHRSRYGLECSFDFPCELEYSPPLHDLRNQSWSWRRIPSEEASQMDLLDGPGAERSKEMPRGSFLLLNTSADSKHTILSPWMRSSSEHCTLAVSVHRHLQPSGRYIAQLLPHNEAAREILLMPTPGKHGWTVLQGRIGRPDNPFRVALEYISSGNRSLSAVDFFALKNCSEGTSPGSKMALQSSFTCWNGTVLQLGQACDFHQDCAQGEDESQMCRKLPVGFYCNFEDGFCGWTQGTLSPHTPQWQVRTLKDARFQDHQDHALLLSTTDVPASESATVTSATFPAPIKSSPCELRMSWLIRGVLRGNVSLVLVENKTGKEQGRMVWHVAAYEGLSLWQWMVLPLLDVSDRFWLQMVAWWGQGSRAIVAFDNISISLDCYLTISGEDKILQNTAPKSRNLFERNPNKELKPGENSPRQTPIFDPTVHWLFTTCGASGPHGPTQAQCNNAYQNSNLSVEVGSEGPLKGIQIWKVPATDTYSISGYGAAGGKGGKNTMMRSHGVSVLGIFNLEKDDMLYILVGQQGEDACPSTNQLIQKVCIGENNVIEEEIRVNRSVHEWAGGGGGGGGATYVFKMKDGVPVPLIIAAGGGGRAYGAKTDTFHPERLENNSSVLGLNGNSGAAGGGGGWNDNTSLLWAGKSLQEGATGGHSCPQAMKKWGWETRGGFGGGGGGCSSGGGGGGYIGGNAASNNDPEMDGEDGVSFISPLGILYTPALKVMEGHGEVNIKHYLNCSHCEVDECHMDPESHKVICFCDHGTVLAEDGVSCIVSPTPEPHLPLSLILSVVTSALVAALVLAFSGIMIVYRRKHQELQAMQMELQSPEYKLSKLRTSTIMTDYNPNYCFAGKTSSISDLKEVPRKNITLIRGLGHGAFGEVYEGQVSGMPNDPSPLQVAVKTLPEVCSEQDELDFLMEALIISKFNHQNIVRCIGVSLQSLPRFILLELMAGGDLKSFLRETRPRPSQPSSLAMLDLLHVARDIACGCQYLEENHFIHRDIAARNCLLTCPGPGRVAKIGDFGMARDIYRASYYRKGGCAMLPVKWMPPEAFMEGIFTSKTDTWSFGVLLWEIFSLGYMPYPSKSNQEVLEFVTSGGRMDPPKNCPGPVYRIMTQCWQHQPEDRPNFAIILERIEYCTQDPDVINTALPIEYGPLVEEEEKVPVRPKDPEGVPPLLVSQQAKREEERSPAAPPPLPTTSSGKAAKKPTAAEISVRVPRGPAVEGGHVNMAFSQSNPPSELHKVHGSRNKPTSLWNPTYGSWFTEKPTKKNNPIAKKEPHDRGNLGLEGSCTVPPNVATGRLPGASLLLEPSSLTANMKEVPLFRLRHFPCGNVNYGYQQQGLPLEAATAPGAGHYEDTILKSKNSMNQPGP
T18 sequence (P10721 26-976): as the sequence (P10721 26-976 D816V) above, with V791D counted along it

O=c1[nH]ccc2nc(N3CCC(O)CC3)nc(Nc3cccc(C(F)(F)F)c3)c12 [Compound 6, 2-(4-hydroxypiperidin-1-yl)-4-(3-(trifluoromethyl)phenylamino)pyrido[4,3-d]pyrimidine-5(6H)-one]
% inhibition (reported as percent control) (SYK): 8.4% | % inhibition (reported as percent control) (PYK2): 32% | GI50 (NCI-H226; Homo sapiens): 3.24 µM | IC50 (NCI-H226; Homo sapiens): 8.32 µM | CC50 (NCI-H226; [1]): 100 µM | TGI (NCI-H226): 17.8 µM | TGI (HL-60(TB)): 5.01 µM | GI50 (HL-60(TB); Homo sapiens): 871 nM | IC50 (HL-60(TB); Homo sapiens): 1860 nM | CC50 (HL-60(TB); [1]): 100 µM | TGI (HCT-15): 31.6 µM | GI50 (HCT-15; Homo sapiens): 537 nM | IC50 (HCT-15; Homo sapiens): 759 nM | CC50 (HCT-15; [1]): 100 µM | GI50 (SF-295; Homo sapiens): 2950 nM | IC50 (SF-295; Homo sapiens): 6.76 µM | CC50 (SF-295; [1]): 56.2 µM | TGI (SF-295): 7.76 µM | % inhibition (reported as percent control) (BMPR2): 0% | % inhibition (reported as percent control) (JNK3): 7% | % inhibition (reported as percent control) (TAK1): 1% | % inhibition (reported as percent control) (FAK): 34% | % inhibition (reported as percent control) (LKB1): 18% | % inhibition (reported as percent control) (RET): 16% | % inhibition (reported as percent control) (SNARK): 3.6% | % inhibition (reported as percent control) (MLK1): 2.8% | % inhibition (reported as percent control) (PLK4): 13% | % inhibition (reported as percent control) (KIT(D816V)): 9.3% | % inhibition (reported as percent control) (JNK2): 25% | % inhibition (reported as percent control) (CSF1R): 5.2% | Percent of control (lower = stronger binding) (ALK): 29% | % inhibition (reported as percent control) (PAK4): 21% | % inhibition (reported as percent control) (JNK1): 4.8% | % inhibition (reported as percent control) (SRPK3): 2.6% | % inhibition (reported as percent control) (PDGFRB): 19% | % inhibition (reported as percent control) (KIT): 11% | GI50 (U251; Homo sapiens, U-251): 6.17 µM | IC50 (U251; Homo sapiens, U-251): 11.7 µM | CC50 (U251; Homo sapiens, U-251, read-out: LC50 (the source's name)): 100 µM | TGI (U251): 100 µM | GI50 (RPMI-8226; Homo sapiens): 2950 nM | IC50 (RPMI-8226; Homo sapiens): 5.5 µM | CC50 (RPMI-8226; [1]): 100 µM | TGI (RPMI-8226): 91.2 µM
